Data published in patent US20240025906A1 (NEURON23, INC., priority 2022, published 2024).

Experiments:
TYK2 JH2 = target: T1, TYK2 JH2 (Homo sapiens, UniProt P29597); assay: TYK2 JH2 binding assay (KINOMEscan KdELECT competitive binding); conditions: TYK2 JH2 domain, KINOMEscan KdELECT (Assay A); read-out: Biochemical TYK2_DiscoverX_JH2_BND_Kd
T1 construct: purchased DiscoverX (KINOMEscan KdELECT service); host or cells: E. coli BL21-derived (T7 phage display) or HEK-293
Method in brief: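 Test compounds were titrated in 11 three-fold steps against JH2 fragment captured on ligand-loaded magnetic beads, with 1 h incubation at room temperature and DMSO at 0.9%. Eluted kinase was quantified by qPCR, and Kd was fitted from the dose series.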

[1] = tested on: JAK1/TYK2 pSTAT5 (Tyr694/699) in THP-1 cell line; assay: IFNa-stimulated JAK1/TYK2 pSTAT5 (Tyr694/699) inhibition cellular assay, AlphaLISA; format: cell-based; conditions: Homo sapiens; THP-1 cells, IFNa-stimulated, AlphaLISA (Assay B); read-out: Cellular_THP1_IFNa-pSTATS_TYK2
Method in brief: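 Compound dilutions were dispensed first, and HBSS-suspended THP-1 cells were added on top (final top concentration 10000 nM, 6-fold series). After 1 h at 37 °C, IFNa (100 ng/mL as added) was applied for 30 min. Cells were then lysed and pSTAT5 was quantified by AlphaLISA.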

T1 sequence (P29597 589-875 limits assumed): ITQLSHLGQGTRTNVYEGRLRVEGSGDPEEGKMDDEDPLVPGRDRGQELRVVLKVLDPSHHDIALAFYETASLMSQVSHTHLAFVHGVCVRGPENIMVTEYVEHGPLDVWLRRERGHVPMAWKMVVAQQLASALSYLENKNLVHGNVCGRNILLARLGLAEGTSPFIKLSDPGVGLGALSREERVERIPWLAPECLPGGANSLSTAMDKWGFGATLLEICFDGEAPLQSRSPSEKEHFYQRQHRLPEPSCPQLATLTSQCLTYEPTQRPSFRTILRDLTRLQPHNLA

Kd (TYK2 JH2) [nM]	IC50 [1] [nM]	Structure (SMILES)
≤ 100	≤ 500	[2H]C([2H])([2H])Oc1ccc(C#Cc2cnc(NC)c3cnc(NC(=O)C4CC4)cc23)nc1 [Example 722, N-(5-((5-(methoxy-d3)pyridin-2-yl)ethynyl)-8-(methylamino)-2,7-naphthyridin-3-yl)cyclopropanecarboxamide]
≤ 100	≤ 500	CNc1ncc(C#Cc2ccc3c(cnn3C(F)F)c2)c2cc(NC(=O)C3CC3)ncc12 [Example 723, N-(5-((1-(difluoromethyl)-1H-indazol-5-yl)ethynyl)-8-(methylamino)-2,7-naphthyridin-3-yl)cyclopropanecarboxamide]
≤ 100	≤ 500	CNc1ncc(C#Cc2ccncc2CCO)c2cc(NC(=O)C3CC3)ncc12 [Example 724, N-(5-((3-(2-hydroxyethyl)pyridin-4-yl)ethynyl)-8-(methylamino)-2,7-naphthyridin-3-yl)cyclopropanecarboxamide]
≤ 100	≤ 500	CNc1ncc(C#Cc2ccc3nc(COC)sc3c2)c2cc(NC(=O)C3CC3)ncc12 [Example 725, N-(5-((2-(methoxymethyl)benzo[d]thiazol-6-yl)ethynyl)-8-(methylamino)-2,7-naphthyridin-3-yl)cyclopropanecarboxamide]
≤ 100	≤ 500	CNc1ncc(C#Cc2ccc(N3CCC3)cn2)c2cc(NC(=O)C3CC3)ncc12 [Example 726, N-(5-((5-(azetidin-1-yl)pyridin-2-yl)ethynyl)-8-(methylamino)-2,7-naphthyridin-3-yl)cyclopropanecarboxamide]
≤ 100	≤ 500	CNc1ncc(C#Cc2ccc(N3CCC3COC)cn2)c2cc(NC(=O)C3CC3)ncc12 (stereo not drawn) [Example 727, N-(5-((5-(2-(methoxymethyl)azetidin-1-yl)pyridin-2-yl)ethynyl)-8-(methylamino)-2,7-naphthyridin-3-yl)cyclopropanecarboxamide]
≤ 100	≤ 500	CNc1ncc(C#Cc2ccc(CN3CCOCC3)cn2)c2cc(NC(=O)C3CC3)ncc12 [Example 728, N-(8-(methylamino)-5-((5-(morpholinomethyl)pyridin-2-yl)ethynyl)-2,7-naphthyridin-3-yl)cyclopropanecarboxamide]
≤ 100	≤ 500	CNc1ncc(C#Cc2ccc(C(C)(F)F)cn2)c2cc(NC(=O)C3CC3)ncc12 [Example 729, N-(5-((5-(1,1-difluoroethyl)pyridin-2-yl)ethynyl)-8-(methylamino)-2,7-naphthyridin-3-yl)cyclopropanecarboxamide]
≤ 100	> 500	CNc1ncc(C#Cc2cc(C#N)c(OC)cn2)c2cc(NC(=O)C3CC3)ncc12 [Example 730, N-(5-((4-cyano-5-methoxypyridin-2-yl)ethynyl)-8-(methylamino)-2,7-naphthyridin-3-yl)cyclopropanecarboxamide]
≤ 100	> 500	CNc1ncc(C#Cc2ccc(OCC(C)(C)F)cc2)c2cc(NC(=O)C3CC3)ncc12 [Example 731, N-(5-((4-(2-fluoro-2-methylpropoxy)phenyl)ethynyl)-8-(methylamino)-2,7-naphthyridin-3-yl)cyclopropanecarboxamide]
≤ 100	≤ 500	CNc1ncc(C#Cc2ccc(OCF)cn2)c2cc(NC(=O)C3CC3)ncc12 [Example 732, N-(5-((5-(fluoromethoxy)pyridin-2-yl)ethynyl)-8-(methylamino)-2,7-naphthyridin-3-yl)cyclopropanecarboxamide]
≤ 100	≤ 500	CNc1ncc(C#Cc2ccc(N3CC4CN(C)CC(C3)O4)cn2)c2cc(NC(=O)C3CC3)ncc12 [Example 733, N-(5-((5-(7-methyl-9-oxa-3,7-diazabicyclo[3.3.1]nonan-3-yl)pyridin-2-yl)ethynyl)-8-(methylamino)-2,7-naphthyridin-3-yl)cyclopropanecarboxamide]
